Values joined by “and” are separate entries in the source; they are usually repeats but may differ in a detail not shown here. Equal values may be shown once.
Key:
[1] = test system: patients with Niemann-Pick Type C (NPC); details: one-month study, 12 NPC patients; Bremova et al. 2015; cited from earlier work
patients with ataxia = details: Becker-Bense et al. 2015; cited from earlier work
[2] = test system: wild-type (Npc1^+/+) mice; experiment: In vivo mouse study in wild-type (Npc1+/+) littermates (weight, gait, motor function)
Description: Wild-type (Npc1^+/+) littermates were used as a control.
Separate groups of Npc1^−/− and Npc1^+/+ mice were left untreated, as controls.
Animals were weighed twice a week. Weights were averaged (mean) across all mice in each group and compared.
Gait analysis was performed on mice at eight weeks of age using a CatWalk® 15.0 system according to manufacturer's instructions (Noldus, Nottingham, UK). Five runs were recorded per animal.
CatWalk® parameters measured were: • 1. Stand Mean: average duration (s) of paws in contact with glass plate; • 2. Step Cycle: duration (s) between two consecutive contacts of the same paw; • 3. Duty Cycle: percentage of time paws in contact with plate compared with time to complete a step cycle; • 4. Step Sequence (AB): percentage of time spent walking in LF-RH-RF-LH alternating pattern (LF: left front; RH: right hind; RF: right front; LH left hind); • 5. Cadence: step per seconds in a trial; • 6. Diagonal Support: percentage of time with simultaneous contact of diagonal paws with the glass plate (RF&LH or RH&LF). Motor Function Analysis
Motor function analysis was performed on mice at eight and nine weeks of age using an Open Field Activity Monitor according to manufacturer's instructions (Linton Instruments, Amlogger Software). Each mouse was placed in a plastic cage with bedding and analysed for five minutes. Rears were counted manually.
Motor function parameters measured were: • 1. Centre Rearing: mice rearing on hind legs unsupported; • 2. Rearing: mice rearing on hind legs with and without the support of cage walls; • 3. Activity: regular movement of the animal including walks; • 4. Front to Back (FR) count: movement of the animal from front to back of the cage; • 5. Active Time: duration (s/min) of activeness regardless of movement; • 6. Mobile Time: duration (s/min) of mobility; • 7. Rearing Time: duration of any rearing.

[3] = test system: Sandhoff disease patient fibroblasts; experiment: Glycosphingolipid (GSL) levels by HPLC in Sandhoff disease patient fibroblasts; format: cell-based, human; details: 1 mM for 6 days
NPC patients = experiment: Clinical severity score (CSS) and annual severity increment score (ASIS) in ten NPC patients; format: in vivo, human; details: 4.5 g/day
Excerpt: An NPC patient's severity may be quantified by assigning a clinical severity score (CSS), which assesses various parameters of the disease and gives each parameter a score out of 5 (higher score =greater severity). See Yanjanin et al., “Linear Clinical Progression, Independent of Age of Onset, in Niemann-Pick Disease, Type C,” Am J Med Genet Part B 153B:132-140. In an untreated patient, one can typically predict how the CSS will change over time in an individual, as disease progression appears to be linear. For example, if Patient A moves from a CSS of 8 to a CSS of 12 between month 0 and month 12, it can be predicted that by month 36, the patient will have a CSS of 20. The annual severity increment score (ASIS) quantities the annual rate of change in the CSS, calculated by dividing the CSS of a patient by the patient's age. […] Each year, the patient would be expected to progress by 4 CSS points, such that at 4 years of age, the patient's CSS would be 16. If therapeutic intervention slowed or arrested disease progression, one would expect the patient to have a smaller ASIS score after such therapy than at baseline.
Ten NPC patients were administered acetyl-leucine at 4.5 g/day over long durations. A CSS was determined at baseline, and at various time points, for eye movement, ambulation, speech, swallow, fine motor skills, cognition, memory, and seizures. An overall CSS was calculated at baseline and at each such time point by adding the individual CSS values for each parameter (eye movement, ambulation, etc.).
The ASIS at baseline and each time point was calculated using each patient's CSS and age at the time of assessment. The overall ASIS for each patient at each time point is shown below in Table 15.

[4] = test system: Hexb^−/− mouse (Sandhoff disease model); experiment: Sandhoff disease mouse model (lifespan, bar crossing test, step cycle); format: in vivo
Description: This study made use of a mouse model of Sandhoff disease, the Hexb^−/− mouse, as described in Jeyakumar et al. (Jeyakumar, M. et al. (1999) Proc. Natl. Acad. Sci. USA 96: 6388-6393).
Wild-type (Hexb^+/+) mice were used as controls.
In FIG. 7A, acetyl-leucine-treated mice were treated with 0.1 g/kg acetyl-leucine from 3 weeks of age. The asterisks (*) indicates a p-value of <0.05 vs untreated Sandhoff mice. Data is average of n=6 mice per group. Without treatment, the median survival time of Sandhoff mice was 112 days. Treatment with acetyl-leucine (0.1 g/kg body weight since 3 weeks of age) increased the median lifespan to 120 days.
The bar crossing test is a method for assessing motor function in mice in which the mouse is placed hanging from the centre of a horizontal bar by its front limbs. A wild-type mouse with normal motor function will be able to engage its hind limbs and thereby move to one of the platforms at either end of the bar, and in doing so complete the test.
An untreated Sandhoff mouse is able to complete the test up until around 11 weeks of age. After this point motor function and hind-limb mobility/engagement have deteriorated to the point to which the mouse cannot complete the test, and will drop from the bar onto the padded surface below.
Step cycle is the length of time taken during locomotion by a limb from the time it leaves the ground until it leaves the ground on the next occasion.
Step cycle time was assessed at 12 weeks of age in untreated and acetyl-leucine treated Sandhoff model mice. Acetyl-leucine treatment constituted 0.1 g/kg body weight acetyl-leucine from 3 weeks of age.

[5] = one line per patient, days per Table 5, listed as acetyl-leucine
[6] = one line per patient, score out of 5, listed as acetyl-leucine

## CC(=O)NC(CC(C)C)C(=O)O (racemic) [acetyl-DL-leucine]
[1]
  Ataxia symptoms: symptomatic improvement of ataxia
Patients with ataxia
  Brain metabolism by PET: increased metabolism in the midbrain and lower brainstem in responders
[2]; 0.1 g/kg from weaning, three to 10 weeks of age
  Effect on weight gain: no significant effect
[2]; 0.1 g/kg, eight weeks of age
  Gait properties versus untreated littermates: no significant difference
[2]; 0.1 g/kg, nine weeks of age
  Motor function properties versus untreated littermates: no significant difference
[3]
  GSL levels (GSL storage): trend towards decreased GSL levels
NPC patients; one line per patient (Patient I.D 1-10), days per Table 5, listed as acetyl-leucine
  CSS overall, Time Point 2: 33 and 12 (3×) and 13 and 23 and 19 and 22 and 11 (2×)
NPC patients; [5]
  CSS overall, Time Point 3: 33 and 11 (2×) and 10 (2×) and 12 and 21 (2×) and 19
  CSS overall, Time Point 4: 33 and 12 and 21
NPC patients; one line per patient, score out of 5
  CSS eye movement, Time Point 4: 3
NPC patients; [6]
  CSS ambulation, Time Point 2: 5 and 1 (3×) and 2 (5×) and 4
  CSS ambulation, Time Point 4: 5 and 1 and 2
  CSS cognition, Time Point 2: 5 and 3 (5×) and 4 (3×) and 2
  CSS cognition, Time Point 3: 5 and 3 (5×) and 4 (3×)
  CSS cognition, Time Point 4: 5 and 3 and 4
  CSS eye movement, Time Point 2: 3 (9×) and 2
  CSS eye movement, Time Point 3: 3 (7×) and 2 (2×)
  CSS fine motor skills, Time Point 2: 5 and 1 (6×) and 4 (2×) and 2
  CSS fine motor skills, Time Point 3: 5 and 1 (5×) and 4 (2×) and 2
  CSS fine motor skills, Time Point 4: 5 and 1 and 4
  CSS memory, Time Point 2: 4 (3×) and 1 (5×) and 3 and 0
  CSS memory, Time Point 3: 4 (2×) and 0 (2×) and 1 (3×) and 3 (2×)
  CSS memory, Time Point 4: 4 and 1 and 3
  CSS seizures, Time Point 2: 5 and 0 (9×)
  CSS seizures, Time Point 3: 5 and 0 (8×)
  CSS seizures, Time Point 4: 5 and 0 (2×)
  CSS speech, Time Point 2: 2 (4×) and 1 (6×)
  CSS speech, Time Point 3: 2 (3×) and 1 (6×)
  CSS speech, Time Point 4: 2 (2×) and 1
  CSS swallow, Time Point 2: 4 and 2 (5×) and 3 (3×) and 0
  CSS swallow, Time Point 3: 4 and 2 (4×) and 3 (3×) and 0
  CSS swallow, Time Point 4: 4 and 2 and 3
NPC patients; ten NPC patients
  Change in overall CSS over the course of the experiment: none of the ten patients showed an overall increase in CSS
[4]; Sandhoff mice, 12 weeks of age, 0.1 g/kg from 3 weeks, p<0.001 vs untreated
  Average step cycle time: significantly faster average step cycle times
[4]; Sandhoff mice, 12 weeks of age, 0.1 g/kg from 3 weeks, p<0.01 vs untreated
  Hind step cycle time: significantly faster hind step cycle times
[4]; Sandhoff mice, 12 weeks of age, 0.1 g/kg from 3 weeks, p<0.05 vs untreated
  Front step cycle time: significantly faster front step cycle times
[4]; Sandhoff mouse model, 0.1 g/kg body weight from 3 weeks of age
  Motor function assessed via the bar-crossing test: improved motor function and hind-limb mobility/engagement
[4]; Sandhoff mouse, 0.1 g/kg from 3 weeks of age, p<0.05
  Lifespan versus untreated Sandhoff mice: statistically significant increase in the lifespan
